Assay results from patent US20040096455A1, “Transdermal vaccine delivery device having coated microprotrusions” (priority 2002, published 2004).
Read-outs that look alike come from different tables or passages of the source.

Assays:
ovalbumin = target: T1, ovalbumin (Gallus gallus, UniProt P01012); experiment: Solubilization of 0.5 wt % ovalbumin solution by surfactants; format: physicochemical
T1 sequence (P01012 1-386): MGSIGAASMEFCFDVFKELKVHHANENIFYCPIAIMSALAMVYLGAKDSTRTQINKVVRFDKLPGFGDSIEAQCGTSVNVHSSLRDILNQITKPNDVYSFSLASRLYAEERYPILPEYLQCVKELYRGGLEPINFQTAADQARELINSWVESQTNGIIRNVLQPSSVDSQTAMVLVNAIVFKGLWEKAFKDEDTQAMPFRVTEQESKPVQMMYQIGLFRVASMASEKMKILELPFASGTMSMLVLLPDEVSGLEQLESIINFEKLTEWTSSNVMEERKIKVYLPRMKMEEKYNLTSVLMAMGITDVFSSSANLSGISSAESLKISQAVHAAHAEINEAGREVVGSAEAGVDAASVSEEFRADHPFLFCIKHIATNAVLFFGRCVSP
Description: Other surfactants and concentrations were test against a solution 0.5 wt % ovalbumin.

[1] = tested on: monovalent "split-varion" influenza vaccine (A/Panama/2007/99, H3N2); format: physicochemical, influenza virus
[2] = 0.5 wt % ovalbumin, Surfactant Concentration 0.0085 M
[3] = 0.5 wt % ovalbumin, Surfactant Concentration 0.017 M
[4] = 0.5 wt % ovalbumin, Surfactant Concentration 0.035 M
[5] = 0.5 wt % ovalbumin, Surfactant Concentration 0.052 M
[6] = 0.5 wt % ovalbumin, Surfactant Concentration 0.069 M

Q: What does the source list for CCCCCCCCCCCC[N+](C)(C)C.[Br-] [Dodecyltrimethylammonium Br]?
A: complete solubilization of ovalbumin solution (ovalbumin; [2]): −; complete solubilization of ovalbumin solution (ovalbumin; [3]): −; complete solubilization of ovalbumin solution (ovalbumin; [4]): −; complete solubilization of ovalbumin solution (ovalbumin; [5]): −; complete solubilization of ovalbumin solution (ovalbumin; [6]): −

Q: For CCCCCCCCCCCC(=O)[O-].[Na+] [Sodium laurate], which “complete solubilization of ovalbumin solution” value (“complete solubilization” for short) (ovalbumin; [2]) is on record?
A: Its value is “−”.

Q: What about the “complete solubilization” value (ovalbumin; [3]) of the same compound?
A: The value was “−”.

Q: What about the “complete solubilization” value (ovalbumin; [4]) of the same compound?
A: Its value is “+”.

Q: What about the “complete solubilization” value (ovalbumin; [5]) of the same compound?
A: Its value is “+”.

Q: And the “complete solubilization” value (ovalbumin; [6])?
A: Its value is “+”.

Q: With CCCCCCCCCCCCCCCCCCOS(=O)(=O)[O-].[Na+] [Sodium octadecylsulfate] as the compound, how does the “complete solubilization” value (ovalbumin) read?
A: Its value is “−”.

Q: With CCCCCCCCOS(=O)(=O)[O-].[Na+] [Sodium octylsulfate] as the compound, how does the “complete solubilization” value (ovalbumin) read?
A: Its value is “−”.

Q: CCCCCCCCCCCCCCOS(=O)(=O)[O-].[Na+] [Sodium tetradecylsulfate] was tested. Which “complete solubilization” value (ovalbumin) did it give?
A: Its value is “−”.

Q: CCCCCCCCCC[N+](C)(C)CCCS(=O)(=O)[O-] [Zwittergent 3-10] was tested. Which “Turbidity @ 340 nanometers (200 μg/ml)” value [1] did it give?
A: The value was 0.120.

Q: CCCCCCCCCCCC[N+](C)(C)CCCS(=O)(=O)[O-] [Zwittergent 3-12] was tested. Which “Turbidity @ 340 nanometers (200 μg/ml)” value [1] did it give?
A: The value was 0.087.

Q: For CCCCCCCCCCCCCC[N+](C)(C)CCCS(=O)(=O)[O-] [Zwittergent 3-14], which “Turbidity @ 340 nanometers (200 μg/ml)” value [1] is on record?
A: The value was 0.070.
